The results in this text go back to ChEMBL document CHEMBL1142807, “Diprolyl nitriles as potent dipeptidyl peptidase IV inhibitors” (Bioorg Med Chem Lett, 2005).

The nature of one data set: Inhibitory activity against Dipeptidyl peptidase IV.
Broadly, the Ki is a dissociation constant, usually derived from enzyme kinetics or from competition with a known ligand. Low values mean a stronger hold on the target, high ones a looser hold on the target. For the compound `N#C[C@@H]1C[C@@H]2C[C@@H]2N1C(=O)[C@@H]1CCN1`, the Ki was > 10000 nM.
Still for that read-out and setting: as for `N#C[C@@H]1C[C@@H]2C[C@@H]2N1C(=O)[C@H]1CCCN1`, the figure is > 10000 nM.
The same measure, in the same setting: next, `CC1(C)CCN[C@@H]1C(=O)N1[C@H](C#N)C[C@@H]2C[C@@H]21`: 37 nM.
Same read-out and setting: as for `CC(C)(C)OC(=O)N[C@@H]1CN[C@H](C(=O)N2[C@H](C#N)C[C@@H]3C[C@@H]32)C1`, the figure is 140 nM; as for `CC(C)(C)CC(=O)N[C@@H]1CN[C@H](C(=O)N2[C@H](C#N)C[C@@H]3C[C@@H]32)C1`, 133 nM; as for `N#C[C@@H]1C[C@@H]2C[C@@H]2N1C(=O)[C@H]1NC[C@@H]2C[C@@H]21`, 52 nM.
`C[C@H]1CCN[C@@H]1C(=O)N1[C@H](C#N)C[C@@H]2C[C@@H]21`: the Ki was 126 nM.
Still for that read-out and setting: next, `CC[C@H]1CCN[C@@H]1C(=O)N1[C@H](C#N)C[C@@H]2C[C@@H]21`: 290 nM.
Regarding `CC(C)(C)OC(=O)NC1CN[C@H](C(=O)N2[C@H](C#N)C[C@@H]3C[C@@H]32)C1` (single isomer, unassigned), the Ki amounted to 492 nM.
On the same count and under the same terms, as for `N#C[C@@H]1C[C@@H]2C[C@@H]2N1C(=O)[C@@H]1C[C@H](NS(=O)(=O)c2ccc(Cl)cc2)CN1`, the figure is 39 nM; as for `N#C[C@@H]1C[C@@H]2C[C@@H]2N1C(=O)[C@@H]1C[C@H](NC(=O)OCC2c3ccccc3-c3ccccc32)CN1`, 57 nM.
On the same count and under the same terms, next, `N#C[C@@H]1C[C@@H]2C[C@@H]2N1C(=O)[C@@H]1C[C@@H]2C[C@@H]2N1`: > 10000 nM; `N#C[C@@H]1C[C@@H]2C[C@@H]2N1C(=O)[C@@H]1CCCCN1`: > 10000 nM; `N#C[C@@H]1C[C@@H]2C[C@@H]2N1C(=O)[C@@H]1CCCN1`: 305 nM.

The nature of another data set: Half Life at 37 degree C and 10 uM in pH 7.0 buffer. In kind it is ADME.
As usually defined, the half-life is how long it takes for the measured level to halve. Low readings indicate fast loss, high ones slow loss. With `N#Cc1ccc(NC2CN[C@H](C(=O)N3[C@H](C#N)C[C@@H]4C[C@@H]43)C2)cc1Cl` (stereo not given in full), the half-life at 10 µM was 900 min.
